Tests used:
[1] = system: C57BL6/J and p16-3MR mice injured with bleomycin; experiment: Bleomycin-induced pulmonary fibrosis in mice; type: in vivo, mouse
Protocol: RNA was extracted from cells or tissues using commercially available kits (Isolate II—Bioline for cells; Direct-zol—Zymo for tissues) according to the manufacturer's instructions. cDNA synthesis was performed using a High Capacity cDNA Reverse Transcription Kit (Thermo Fisher) according to the manufacturer's instructions. Quantitative PCR was performed on a LightCycler 480 II (Roche) using primers and probes designed for the Universal Probe Library. Primers and probes used for human transcripts were ACTB: 5′-CCAACCGCGAGAAGATGA (SEQ ID NO:1), 5′-TCCATCACGATGCCAGTG (SEQ ID NO:2), Probe #64; TUBA: 5′-cttcgtctccgccatcag (SEQ ID NO:3), 5′-ttgccaatctggacacca (SEQ ID NO:4), Probe #58; ALOX5: 5′-[…] (SEQ ID NO:5), 5′-[…] (SEQ ID NO:6), Probe #64; ALOX5AP: 5′-ggtctgcggggctacttt (SEQ ID NO:7), 5′-[…] (SEQ ID NO:8), Probe #18; ALOX12: 5′-[…] (SEQ ID NO:9), 5′-agccaggtcgtcaggag (SEQ ID NO:10), Probe #32; ALOX15: 5′-[…] (SEQ ID NO:11), 5′-[…] (SEQ ID NO:12), Probe #76; ALOX15B: 5′-[…] (SEQ ID NO:13), 5′-actgggaggcgaagaagg (SEQ ID NO:14), Probe #51; AKR1C1: 5′-catgcctgtcctgggattt (SEQ ID NO:15), 5′-[…] (SEQ ID NO:16), Probe #49; AKR1C2: 5′-ctatgcgcctgcagaggt (SEQ ID NO:17), 5′-[…] (SEQ ID NO:18), Probe #31; AKR1C3: 5′-[…] (SEQ ID NO:19), 5′-[…] (SEQ ID NO:20), Probe #78; CYSLTR2: 5′-[…] (SEQ ID NO:21), 5′-[…] (SEQ ID NO:22), Probe #18; DPEP1: 5′-gacgtcctgaggctggtg (SEQ ID NO:23), 5′-[…] (SEQ ID NO:24), Probe #9 (SEQ ID NO:25), ELOVL2: 5′-[…] (SEQ ID NO:26), 5′-[…] (SEQ ID NO:27), Probe #53; ELOVL4: 5′-catttggcccatggattc (SEQ ID NO:28), 5′-[…] (SEQ ID NO:29), Probe #31; ELOVL5: 5′-cccttccatgcgtccata (SEQ ID NO:30), 5′-[…] (SEQ ID NO:31), Probe #31; EPHX2: 5′-ttctgctggacaccctgaa (SEQ ID NO:32), 5′-[…] (SEQ ID NO:33), Probe #45; GPX4: 5′-ttcccgtgtaaccagttcg (SEQ ID NO:34), 5′-[…] (SEQ ID NO:35), Probe #36; LTA4H: 5′-ctgctctcacggtccagtc (SEQ ID NO:36), 5′-[…] (SEQ ID NO:37), Probe #64; LTBR2: 5′-[…] (SEQ ID NO:38), 5′-[…] (SEQ ID NO:39), Probe #33; LTC4S: 5′-[…] (SEQ ID NO:40), 5′-[…] (SEQ ID NO:41), Probe #18; PTGDS: 5′-[…] (SEQ ID NO:42), 5′-[…] (SEQ ID NO:43), Probe #36; PTGES: 5′-agagatgcctgcccacag (SEQ ID NO:44), 5′-tggccaccacgtacatctt (SEQ ID NO:45), Probe #4; PTGES2: 5′-[…] (SEQ ID NO:46), 5′-[…] (SEQ ID NO:47), Probe #49; PTGES3 (SEQ ID NO:48), 5′-[…] (SEQ ID NO:49), 5′-[…] (SEQ ID NO:50), Probe #48; PTGIS: 5′-[…] (SEQ ID NO:51), 5′-[…] (SEQ ID NO:52), Probe #45; PTGR1: 5′-atgatggggcagcaagtg (SEQ ID NO:53), 5′-cccatcagaaatggagtgc (SEQ ID NO:54), Probe #64; PTGS1: 5′-[…] (SEQ ID NO:55), 5′-gtggtggtccatgttcctg (SEQ ID NO:56), Probe #81; PTGS2: 5′-gatccccagggctcaaac (SEQ ID NO:57), 5′-[…] (SEQ ID NO:58), Probe #61; TBXAS1: 5′-[…] (SEQ ID NO:59), 5′-tgcctcccgtgtgaatct (SEQ ID NO:60), Probe #73; AREG: 5′-[…] (SEQ ID NO:61), 5′-[…] (SEQ ID NO:62), Probe #73; CCL2: 5′-AGTCTCTGCCGCCCTTCT (SEQ ID NO:63), 5′-GTGACTGGGGCATTGATTG (SEQ ID NO:64), Probe #40; CCL27: 5′-[…] (SEQ ID NO:65), 5′-gctgggtggcagtaggaat (SEQ ID NO:66), Probe #18; CXCL1: 5′-[…] (SEQ ID NO:67), 5′-[…] (SEQ ID NO:68), Probe #52; HGF: 5′-[…] (SEQ ID NO:69), 5′-[…] (SEQ ID NO:70), Probe #49; ILIA: 5′-[…] (SEQ ID NO:71), 5′-[…] (SEQ ID NO:72), Probe #6; IL1B: 5′-[…] (SEQ ID NO:73), 5′-[…] (SEQ ID NO:74), Probe #78; IL6: 5′-[…] (SEQ ID NO:75), 5′-gaaggcagcaggcaacac (SEQ ID NO:76), Probe #45; IL8: 5′-[…] (SEQ ID NO:77), 5′-atggttccttccggtggt (SEQ ID NO:78), Probe #72; IL10: 5′-[…] (SEQ ID NO:79), 5′-[…] (SEQ ID NO:80), Probe #67; MMP3: 5′-[…] (SEQ ID NO:81), 5′-[…] (SEQ ID NO:82), Probe #36; PDGFA: 5′-[…] (SEQ ID NO:83), 5′-[…] […]

[2] = system: C57BL6/J and p16-3MR mice injured with bleomycin; experiment: Bleomycin-induced pulmonary fibrosis in mice; type: in vivo, mouse; remark: listed apart in the source
[3] = system: IL-6 secretion; experiment: IL-6 ELISA on non-senescent cells treated with prostaglandins; type: cell-based, human; details: 10 μM, 10 days
Protocol: Human fetal lung fibroblasts (IMR-90) were cultured in Dulbecco's modified eagle medium (DMEM) supplemented with 10% FBS and penicillin/streptomycin. LL 29 (AnHa) cells were obtained from the ATCC and growth to confluence using the ATCC protocol, but were subcultured as described for IMR-90 before initiation of all experiments. Quiescence was induced by replacing culture media with media containing 0.2% FBS. MCF-7 and MDA-MB-231 breast cancer cells were cultured in RPMI supplemented with 10% FBS and penicillin/streptomycin. All cells were cultured at 3% O2, and used between 25 and 40 population doublings. All cells were mycoplasma free.
3×10^4 cells in 12-well plates were treated as indicated in the text, and cultured in 0.5-1 ml serum-free DMEM for 24 hr. CM were collected and clarified at 2,000×g for 10 min. Supernatants were transferred to a tube; cells were trypsinized and counted. CM (2.5 μl) were analyzed by bead-based ELISAs (AlphaLISA, Perkin-Elmer) as instructed by the manufacturer and normalized to cell number.

[4] = bleomycin-treated animals, day 14, ELISA

Structure (SMILES) | RNA levels of p16INK4a and p21WAF1 in lungs ([1]; 14 days after bleomycin injury) | collagen expression (Col3a1 and Col4a1) ([1]; bleomycin-injured mice, 21 days after injury as printed) | mRNA levels of Alox5, Ltc4s, Ptgs2, Ptgds, and Ptges in lungs ([1]; bleomycin-injured mice, day 14) | histological staining of lungs with picrosirius red ([2]; 21 days after bleomycin) | collagen content (hydroxyproline) ([2]; 21 days after injury) | cysteinyl leukotrienes in bronchioalveolar lavage fluid (BALF) [2, 4] | prostaglandin E2 in bronchioalveolar lavage fluid (BALF) [2, 4] | phosphorylation of cPLA2 ([2]; bleomycin-treated mice, lung, day 14) | IL-6 secretion [3]
CC1(C)CCC(c2ccc(Cl)cc2)=C(CN2CCN(c3ccc(C(=O)NS(=O)(=O)c4ccc(N[C@H](CCN5CCOCC5)CSc5ccccc5)c(S(=O)(=O)C(F)(F)F)c4)cc3)CC2)C1 [ABT-263, 4-[4-[[2-(4-chlorophenyl)-5,5-dimethylcyclohexen-1-yl]methyl]piperazin-1--yl]-N-[4-[[(2R)-4-morpholin-4-yl-1-phenylsulfanylbutan-2-yl]amino]-3-(tri-fluoromethylsulfonyl)phenyl]sulfonylbenzamide] | significantly attenuated | reduced | lowered these levels to those of PBS-treated animals | attenuation of the fibrotic response | reduced | reduced | reduced | lowered | 
CCCCC[C@H](O)/C=C/[C@H]1C=CC(=O)[C@@H]1C/C=C\CCCC(=O)O [PGA2] |  |  |  |  |  |  |  |  | elevated
